From US7557144B1, “Modulation of protein expression using carbocyclic aryl alkenoic acid derivatives” (The Johns Hopkins University, priority 2000, dated 2009)

Columns and labels:
calnexin = experiment: Calnexin immunoblot of IB3-1 lysates; assay type: cell-based, human; details: IB3-1 cells, increasing concentrations of 4-PBA
Experimental: (§1) 3. Immunoblot analysis. Whole cell lysates were prepared by solubilization with 2% SDS at 95° C. Protein concentration in the lysates was determined using the Bio-Rad DC assay reagents with bovine plasma g-globulin as a standard (Bio-Rad Laboratories, Hercules, Calif.). Equal amounts of protein was resolved on 5, 7, 8, or 9% SDS-polyacrylamide gels. Proteins were transferred to nitrocellulose, and immunodetection was performed as previously described (25). Nonspecific binding was blocked by incubation of the nitrocellulose with 2% gelatin or 10% nonfat day milk. Primary antisera and secondary antibodies were applied in buffer containing 0.4% BSA overnight at 4° C. and for 1 h at room temperature, respectively. Detection of immunoreactivity was performed with the enhanced chemiluminescence reagent (ECL, Amer-sham) and fluorography. Recombinant bovine Hsc70 ([…]) was purchased from Stressgen Biotechnologies for use in constructing a standard curve of Hsc70 immunoreactivity. Immunoblots containing the bovine Hsc70 were probed with the Hsc70-specific polyclonal antiserum.
(§2) Whether 4-PBA would regulate expression of a number of other molecular chaperones in IB3-1 cells (FIG. 2) was assessed next. […] Hsp90 is required for correct folding and function of a number of cellular proteins (16). […]

Hsp40 = Hsp40 immunoblot of IB3-1 lysates; assay type: cell-based, human; details: IB3-1 cells, increasing concentrations of 4-PBA
Experimental: as §1
Whether 4-PBA would regulate expression of a number of other molecular chaperones in IB3-1 cells (FIG. 2) was assessed next. […] Hsp90 is required for correct folding and function of a number of cellular proteins (16). […] Hsp70 (Hsp72) expression is induced by heat shock and the presence of denatured proteins within the eukaryotic cell (16). In Escherichia coli, the Hsp70 homologue DnaK and the Hsp40 homologue DnaJ act to promote protein folding (16). Hdj2 is the member of the Hsp40 family that specifically interacts with and regulates the ATPase activity of Hsc70. Hdj2 also interacts with CFTR during CFTR translation (26).
FIGS. 2A-2E are more specifically explained as follows. […]
FIGS. 5A-C are explained in more detail as follows. […] Cellular homogenates were prepared in 2% SDS as described in METHODS, and 5 μg of total cellular protein were analyzed by immunoblot for Hsc70 using rabbit polyclonal antiserum, Hsp90, Hsp70, Hsp40 as described above under General Comments. […]

Hdj2 = Hdj2 immunoblot of IB3-1 lysates; assay type: cell-based, human; details: IB3-1 cells, increasing concentrations of 4-PBA
Experimental: as §1, §2

CFTR [1] = experiment: CFTR immunoblot with anti-CFTR antibody 181 in IB3-1 cells; assay type: cell-based, human; details: increasing concentrations of 4-phenylbutyrate (FIG. 14)
Experimental: as §1
Control cells at 37° C. show band B CFTR, but virtually undetectable band C CFTR. These cells as expected show very little Hsp70, the heat shock inducible chaperone. At 27° C., a lower temperature, there is very little Hsp70 as expected, but as expected, there has been induction of band C CFTR.

CFTR [2] = experiment: Nasal potential difference in CF patients; assay type: in vivo, human
Excerpt: Standard methods for detecting and quantifying electrical potentials from nasal epithelia have been reported. See e.g., Zeitlin, P. L. (2000) in Mol. Therapy 1: 1; Noone, P. G. et al. (2000) in Mol. Therapy 1: 105-114; Caplen, J. J. et al. (1995) Nat. Med. 1: 39-46; Middleton, P. G. (1994) in Eur. Respir. 7: 2050-2056; the disclosures of which are hereby incorporated by reference.
This is consistent with the presence of a functional CFTR in the nasal epithelial cell surface.
FIG. 16D the same individual as in […] 18 days on 4-phenylbutyrate.

[3] = administered 4-PBA; cited from earlier work
[4] = test system: CF airway epithelial cells; details: Rubenstein et al. 1997; cited from earlier work

## O=C(O)CCCc1ccccc1 [4-PBA, 4-phenylbutyric acid]
calnexin
  expression of calnexin: did not affect
Hsp40
  expression of Hsp40: did not affect
Hdj2
  expression of Hdj-2: did not affect
CFTR [1]
  band C CFTR: promotes appearance of band C CFTR
CFTR [2]; CF patient (deltaF508 homozygous), 20 gm daily for 7 days
  nasal potential difference response to low chloride/isoproterenol: induce chloride transport
CFTR [2]; same CF patient after 18 days on 4-phenylbutyrate
  nasal potential difference response to low chloride/isoproterenol: continues to sustain chloride transport
[3]
  toxicity: little toxicity beyond a slightly bitter taste, mild stomach discomfort or mild peripheral edema if severely anemic
[4]
  cAMP-mediated chloride transport: promote functional correction of cAMP-medicated chloride transport
